# Measurements taken from PMC6614837 (Nucleic Acids Research, 2019).
# How the values were obtained:
# RNase P holoenzyme = molecular target: T1, RNase P holoenzyme (Thermotoga maritima, UniProt Q9X1H4); assay: Displacement of pre-tRNA from the holoenzyme (BLI); assay type: binding, T. maritima; conditions: holoenzyme on Ni-NTA biosensors, compound 0–400 μM, then pre-tRNA
# T1 construct: GST (cleaved yes); made in house; host or cells: E. coli BL21(DE3)pLysS
# T1 sequence (Q9X1H4 1-117): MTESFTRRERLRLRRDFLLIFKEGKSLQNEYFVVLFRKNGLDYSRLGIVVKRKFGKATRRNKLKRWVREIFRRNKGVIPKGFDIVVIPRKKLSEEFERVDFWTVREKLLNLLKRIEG
# Procedure: Real-time binding assays of the holoenzyme, P RNA, P protein, the substrate minihelix and the 5′-leader to individual compounds were performed by biolayer interferometry using an Octet RED96 system (ForteBio). For the holoenzyme or P RNA, a 5′ biotinylated RNA oligonucleotide with the sequence 5′biotin-CAUUCCAGACGAU was immobilized on Super Streptavidin (SSA) biosensors. Then, a modified P RNA or holoenzyme was added. The P RNA modification consisted of a sequence with part of the P1 stem sequence complementary to the biotinylated oligonucleotide (AUCGUCUGGA) (Supplementary Figure S23A). P1 is far from the active site or other regions involved in specific interactions (Supplementary Figure S23B) ([19]). The activity of this construct was indistinguishable from the wild-type holoenzyme. Alternatively, the holoenzyme was immobilized through the His-tagged P protein from T. maritima at 0.05 mg/ml (3.4 μM) on Ni-NTA biosensors. Control biosensors were used to subtract non-specific binding of compounds to the biosensor surface. All assay steps (immobilization, wash, baseline, association, and dissociation) were performed in 20 mM HEPES pH 7.4, 100 mM ammonium acetate, 10 mM MgCl2, 2.5% DMSO. The assays were performed on black bottom 96-well microplates (Greiner Bio-One 655209) in a total volume of 200 μl, at 30°C with orbital shaking at 1000 rpm. Experiments were controlled with the software Data Acquisition 8.2 (ForteBio, Inc.). Kinetic binding parameters were calculated using Data Analysis 8.2 (ForteBio, Inc.). After subtraction of reference biosensors, the binding curves were aligned to the X- and Y-axis and the association-dissociation inter-step curve in order to get a common baseline for the association and dissociation phases.
# Figure 4. Characterization of the inhibition of T. maritima RNase P by purpurin. (A) Best global fit for inhibition of RNase P in the presence of varying concentrations of fluorescent Mh substrate. […] Symbols represent the mean ± standard error as determined from three independent experiments at each concentration. See also Supplementary Figure S18. […] Binding sensorgrams obtained by biolayer interferometry (BLI). RNase P holoenzyme at 400 nM was immobilized on Ni-NTA. […] Binding sensorgrams obtained by biolayer interferometry (BLI). RNase P holoenzyme was immobilized on Ni-NTA biosensors, incubated with purpurin at varying concentrations (0–400 μM), and then the association and dissociation pre-tRNA was monitored. […] See also Supplementary Figure S17.
# [1] = tested on: 3'-biotinylated minihelix (Mh; pMini3bpUG) (RNA, hairpin) GAUCUGAAUGCGGAAACGCGCCAC; assay: biolayer interferometry; conditions: Mg2+ 10 mM, NH4+ 100 mM (ammonium acetate); 20 mM HEPES pH 7.4, DMSO, 30°C; highest concentration tested 1 mM
Structure (SMILES),Dose–response displacement of pre-tRNA (RNase P holoenzyme),binding [1]
"O=C1C=C2CC3(O)COc4c(ccc(O)c4O)C3=C2C=C1O (stereo not drawn) [Hematein, 3,4,6a,10-tetrahydroxy-6a,7-dihydroindeno[2,1-c]chromen-9(6H)-one]",No,no
"O=C1C=CC(=O)c2c(O)cccc21 [Juglone, 5-hydroxy-1,4-naphthoquinone]",No,no
"O=C1c2ccccc2C(=O)c2c(O)c(O)cc(O)c21 [Purpurin, 1,2,4-trihydroxyanthraquinone]",displaces bound pre-tRNA in a dose-response behavior and Yes,no
